Data reported in patent US6323186A, “Phosphate-bound polyazaindacene derivatives of nucleotides” (Molecular Probes, Inc., priority 2000, dated 2001).

Experiment: Relative quantum yield determination for labeled nucleotides
Assay type: physicochemical
Source text: […] The concentration of this solution is matched with that of a solution of Compound 2 in the same solvent by matching the optical density (OD) at the absorption wavelength maximum, which is 504 nm for both samples.

[1] = in methanol, relative to reference fluorophore
[2] = pH 9 phosphate buffer, OD matched at absorption maximum, excited at λmax, reference 4,4-difluoro-5,7-dimethyl-4-bora-3a,4a-diaza-s-indacene-3-propionic acid
[3] = pH 9 phosphate buffer, relative to reference fluorophore

With `Cc1cc(C)n2c1C=C1C=CC(CNC(=O)CSP(=O)(O)OP(=O)(O)OP(=O)(O)OC[C@H]3O[C@@H](n4cnc5c(=O)[nH]c(N)nc54)[C@H](O)[C@@H]3O)=[N+]1[B-]2(F)F` [Compound 2] the fluorescence quenched [1] was 41%, the “fluorescence yield relative to reference fluorophore” value [1] was 59% and the “fluorescence yield relative to reference fluorophore” value [2] was 11%. For the same molecule, the fluorescence quenched [3] was 89%.
In the case of `Nc1nc2c(ncn2[C@@H]2O[C@H](COP(=O)(O)OP(=O)(O)OP(=O)(O)SCC(=O)NCCCCCNC(=O)COc3ccc(C4=[N+]5C(=Cc6ccc(-c7cccs7)n6[B-]5(F)F)C=C4)cc3)[C@@H](O)[C@H]2O)c(=O)[nH]1` [Compound 4], the fluorescence quenched [1] is reported as 25%, the “fluorescence yield relative to reference fluorophore” value [1] is reported as 75% and the “fluorescence yield relative to reference fluorophore” value [2] is reported as 9.1%. For the same molecule, the fluorescence quenched [3] was 90.9%.
